From US6734168B2, “Endothelial monocyte activating polypeptide II: a mediator which activates host response” (The Trustees of Columbia University in the City of New York, priority 1993, dated 2004)
No end group written: not given here.

What was measured:
human MPs [1] = test: Radioligand binding of 125I-[…] to MPs; details: for Competition for binding of 125I-RIGRIVTAKY to MPs by unlabelled peptide/protein: excess / increasing concentrations of unlabelled competitor
Procedure: Radioligand binding studies were performed on human MPs plated in 96-well plates (5-6×10^4 cells/well). Cells were washed twice with Hanks balanced salt solution, and then Dulbecco's Modified Eagle Medium containing HEPES (25 mM; pH 7.4), penicillin/streptomycin (50 U/ml; 50 μg/ml), and bovine serum albumin-fatty acid free (0.5%; Sigma) were added (0.1 ml/well). Cultures were incubated at 4° C. for 2 hrs with ^125I-[…] alone or in the presence of unlabelled peptide/protein. Each well was washed four times over a period of 20 sec, and cell-associated radioactivity was eluted by an acidic buffer (HCl, 0.1 M, pH 2; NaCl, 0.1 M) at 4° C. for 5 min. During the elution period, there was no detachment of cells from the growth substrate. The conditions for incubation and washing used in the binding studies shown in FIG. 3 (2 hrs at 4° C.) were […] to allow binding of ^125I-[…] to reach an apparent maximum, even at the lowest tracer concentrations, and to remove unbound material by washing quickly so that <10% of the cell-bound radioactivity dissociated.

ECs = test: Pilot binding studies using ECs; details: data not shown
human PMNs [2] = test: PMN migration in microchemotaxis chambers; assay type: cell-based; set-up: key to PMN MIGRATION: (+) indicates the peptide induced PMN migration; (−) indicates the peptide did not induce PMN migration above levels seen in controls which contained no chemotactic stimulus; details: for PMN MIGRATION: peptides 100 pM in each case; for Induction of PMN migration (chemotaxis): microchemotaxis chamber, 45 min at 37° C.
Procedure: (§1) Assessment of mononuclear phagocyte (mononuclears) and polymorphonuclear leukocyte (PMN) migration. Human peripheral blood monocytes were isolated from the blood of normal healthy volunteers (30). Blood was centrifuged on Hisopaque 1077 (Sigma, St. Louis, Mo.), the mononuclear fraction was obtained, washed twice in Earle's balanced salt solution, resuspended in RPMI 1640 containing human serum (10%; Gemini, Calabasas, Calif.), plated on tissue culture dishes and incubated at 37° C. for 1-2 hrs. Nonadherent cells were removed by washing the plate twice with balanced salt solution, and adherent cells were harvested by incubation with calcium-magnesium free buffer containing EDTA (2 mM) for 15 min at 37° C., followed by extensive washing. PMNs were prepared by centrifugation over Hisopaque 1119 as per the manufacturer's protocol (Sigma). Chemotaxis assays were performed in microchemotaxis chamber (NeuroProbe, Bethesda, Md.) containing Nucleopore polycarbonate membranes (5 μm; Nucleopore, Pleasonton, Calif.). Mononuclears or PMNs were suspended in RPMI 1640 containing fetal bovine serum (1%) and 10^4 cells were added per well to the upper chamber. The chemotactic stimulus was added to the indicated chamber, and assays were performed in quadruplicate over a 3 hr or 45 min incubation period at 37° C., with mononuclear cells or PMNs, respectively, after which non-migrating cells were removed, membranes were fixed in methanol, migrating cells were visualized with Wright's stain. Cells in nine high-power fields were counted, and the mean and standard error of the mean (SEM) were determined.
(§2) Cell migration was studied by adding MPs or PMNs (10^4 cells/well) resuspended in RPMI 1640 with fetal calf serum (1%; Gemini) to the upper wells of a microchemotaxis chamber (Neuro Probe, Bethesda, Md.) containing Nucleopore polycarbonate membranes (5 μm, Nucleopore, Pleasanton Calif.), as described (7,29-30). The chemotactic stimulus was placed in the upper or lower chamber, as indicated, and cells were allowed to migrate for 3 hrs (for MPs) or 45 min (for PMNs) at 37° C. Following removal of non-migrating cells, membranes were fixed in methanol and migrating cells were visualized with Wright's stain. Assays were performed in quadruplicate, and cells were counted in nine high-power fields in each case (mean±SEM is shown in the figures).
(§3) Migration of PMNs and MPs—Migration was studied using cells (10^4 and 10^3 cells/well form PMNs and MPs, respectively) resuspended in RPMI 1640 with fetal calf serum (1%) added to the upper wells of a microchemotaxis chamber (Neuro Probe, Bethesda, Md.) containing Nucleopore polycarbonate membranes (5 um, Nucleopor, Pleasanton, Calif.), as described (13, 22, 35). The stimulus was placed in the upper or lower chamber, as indicated, and the cells were allowed to migrate for 3 h (for MPs) or 45 min (for PMNs) at 37° C. Following removal of nonmigrating cells, membranes were fixed in methanol, and migrating cells were visualized with Wright's stain. Assays were performed in quadruplicate, and cells were counted in […] high-power fields in each case (mean±S.E. is shown in the figures).

human PMNs [3] = test: [Ca2+]i measurement in PMNs (fura-2); assay type: cell-based
Procedure: (§4) [Ca^2+1]i measurements. PMNs or MPs (2×10^7 cells in each case) were incubated with fura-2 AM (1 μM) and pluronic detergent (0.02%) for 12 min at room temperature, diluted sixfold, and incubated for a further 30 min at room temperature to allow for complete hydrolysis of the dye. Cells were then resuspended in HEPES-buffered saline at 5×10^5 cells/ml (32). For experiments using MPs, sulfinpyrazone (0.5 mM) was included at all steps to minimize both dye sequestration into intracellular organelles and dye efflux (33). Fluorescence of fura-2 was monitored at 37° C. in a thermostatically-controlled cuvette installed in a Perkin Elmer Model 650-40 fluorescense spectrophotometer. Calibration of [Ca^2+]i was performed as described (34).
(§5) For determination of [Ca^2+] in PMSs and MPs, cells (2×10^7 in each case) were incubated with fura-2 AM (1 um) and pluronci detergent (0.02%) at room temperature, diluted 6-fold, and incubated for a further 30 min at room temperature to allow for complete hydrolysis of the dye. Cells were then resuspended in HEPES-buffered saline at 5×10^5 cells/ml (32). For MPs, sulfinpyrazone (0.5 mM) was included at all steps to minimize both dye sequestration into intracellular organelles and dye efflux (33). Fluorescence of fura-2 was monitored at 37° C. in a thermostatically controlled cuvette installed in a Perkin Elmer model 650-40 fluorescence spectrophotometer. Calibration of [Ca^2+] was performed as described (34).

[4] = system: human peripheral blood monocytes (MPs); test: Mononuclear phagocyte migration in microchemotaxis chambers; assay type: cell-based; details: microchemotaxis chamber, 3 hrs at 37° C.
Procedure: as §1, §2, §3

human MPs [5] = test: [Ca2+]i measurement in MPs (fura-2); assay type: cell-based
Procedure: as §4
as §5, with “Calibration of [Ca^2+] was performed as described (34).” left out

| Competition for binding of 125I-RIGRIVTAKY to MPs by unlabelled peptide/protein (human MPs [1]) | Substance | PMN MIGRATION (human PMNs [2]) | also measured |
| --- | --- | --- | --- |
|  | 125I-RIGRIVTAKY (also: 125I label) |  | N, binding sites (human MPs [1]; 4° C.): 8.3±1.2×10^3 molecules of peptide bound per cell; Kd (human MPs [1]; read-out: Kd of specific binding to MPs (one-site model), 4° C.): 0.19 ± 0.11 nM; Specific binding to ECs (ECs): specific binding |
|  | AIGRIVT | + |  |
| had no effect | ASRLDL | − | Rise in [Ca2+]i in PMNs (human PMNs [3]): inactive |
|  | ASRLDLRIGC*IVTAK | + |  |
|  | ASRLDLRIGRIVTAK | + |  |
| blocked | ASRLDLRTGRIVT |  |  |
|  | AVLPRSAKELRL [peptide derived from the ELR-region of IL-8, residues #23-34, reference compound] |  | Induction of PMN migration (chemotaxis) (human PMNs [2]): no chemotaxis was observed; Induction of MP (mononuclear cell) migration (chemotaxis) [4]: inactive |
| had no effect | CRAQTMANSGIK [peptide derived from the C-terminal portion of EMAP II, reference compound] |  | Induction of PMN migration (chemotaxis) (human PMNs [2]): no chemotaxis was observed; Induction of MP (mononuclear cell) migration (chemotaxis) [4]: inactive |
|  | IRKDMDKVETFLRIVQ [irrelevant peptide derived from growth hormone, reference compound] |  | Induction of PMN migration (chemotaxis) (human PMNs [2]): no chemotaxis was observed; Induction of MP (mononuclear cell) migration (chemotaxis) [4]: inactive |
|  | LRIGRIVTAKY | + |  |
| inhibition | RICRIVTAK |  |  |
| had no effect | RIGRAVT | − |  |
|  | RIGRIIT | + |  |
| blocked | RIGRIVT | + | Rise in [Ca2+]i in MPs (human MPs [5]): insufficient to promote increases in [Ca^2+]i; Rise in [Ca2+]i in PMNs (human PMNs [3]): did not promote enhanced [Ca^2+]i |
|  | RIGRIVTAKY | + | Rise in [Ca2+]i in PMNs (human PMNs [3]): did not promote enhanced [Ca^2+]i |
